US4983596A, “3-pyrrolidinylthio-1-azabicyclo[3.2.0]-hept-2-ene-2-carboxylic acid derivatives and their preparation” (Fujisawa Pharmaceutical Company, Ltd., priority 1988, dated 1991)
In brackets after ≈: the same amount, converted by molar mass.

Test system: P. aeruginosa 26
Test: in vitro Antimicrobial Activity, two-fold agar-plate dilution method (MIC)
Format: cell-based
Conditions: Pseudomonas aeruginosa; Test strain P. aeruginosa 26; heart infusion agar; 10^6 viable cells per ml; incubation at 37° C. for 20 hours; read-out: MIC (minimal inhibitory concentration)
Experimental: in vitro Antimicrobial Activity
in vitro Antimicrobial Activity was determined by the two-fold agar-plate dilution method as described blow. […]
The product of Example (2-1).

- MIC: 0.39 µg/mL (≈ 1 µM)
Structure (SMILES): C[C@@H](O)[C@H]1C(=O)N2C(C(=O)O)=C(S[C@@H]3CN[C@H](COCCF)C3)[C@H](C)[C@H]12 [Example (2-1), (4R,5S,6S)-3-[(2S,4S)-2-(2-fluoroethyloxymethyl)pyrrolidin-4-yl]thio-6-[(1R)-1-hydroxyethyl]-4-methyl-7-oxo-1-azabicyclo[3.2.0]hept-2-ene-2-carboxylic acid]
